According to patent US20240139125A1 (INDUSTRIAL COOPERATION FOUNDATION JEONBUK NATIONAL …, priority 2020, published 2024):
“Also recorded” adds a separate entry of the source.

Experiments:
[1] = system: HT1080 and MDA-MB-231 cells; assay: Cell invasion assay; format: cell-based
Description: FIG. 65B is an image of an invasive cell in HT1080 and MDA-MB-231 cells treated with 2.0 μM BIA. The graph on the right quantifies invading cells from BIA-treated cells normalized to control cells (n=3 independent experiments). Data were expressed as mean±SD. **p<0.01, ***p<0.001, two-tailed unpaired t-test. The scale bar represents […].
Cells were moved through the polyethylene terephthalate membrane (BD Biosciences) of the insert for 12 hours, and then fixed, crystal violet staining was performed to measure the degree of invasion.
Cell invasion experiments were performed according to the method of the Invasion Assay Kit (corning, 3458). Put a cell culture insert into the 24-well cell culture plate, DMEM medium with 10% FBS added outside the insert , and no FBS added inside the insert. 2.0 μM BIA was added to HT1080 and MDA-MB-231 and incubated at 37° C. for 12˜24 hours. Removed the medium in the 24-well culture plate and the medium inside the insert Then, a cotton swab was used to remove the remaining cells in the insert. After fixing the insert in 4% formaldehyde solution, stain the cells that penetrate the bottom of the insert with crystal violet solution, wash it with tertiary distilled water, and then at room temperature Dried and dried inserts were observed under a microscope.

BAL inflammatory cells = assay: Aspergillus-infected asthmatic mouse model, BAL cells and lung histology; format: in vivo; conditions: asthma-inducing group; BIA 0.1 mg/kg and 0.01 mg/kg, IC87114 1 mg/kg, intratracheal
Source text: FIG. 80A and FIG. 80B show mice that were infected with aspergillus with or without BIA, or IC87114, fixing the tissue to 4% formalin, injecting paraffin to make blocks, and then cutting into 4 μm thick to react to buffer and performing hematoxylin-eosin staining. The observation result (A) and the observation result (B) by PAS staining are shown.
The result is quantified by counting the total number of cells of living BAL fluid, excluding dead cells stained in trypan blue.
A. fumigatus-induced allergic pulmonary inflammation To establish the model, mice were treated with 10 μg of A. fumigatus crude antigen extract (Greer Laboratories, Cat # XPM3D3A4, Lenoir, NC, USA) with fungal substance inactivated. 0.2 ml of incomplete Freund's adjuvant (Sigma-Aldrich, Cat # F5506-6X) in regular saline It was dissolved and mixed, and half of the preparation was deposited in the peritoneal cavity and the rest was delivered subcutaneously. After 2 weeks, mice received 20 μg of A. fumigatus antigen dissolved in normal saline through the intranasal route, after an intranasal attack After 4 days, 20 μg of A. Fumigatus antigen dissolved in normal saline was treated via the endotracheal route. Control mice were administered only saline at the same time point in time through the same route and treated with the same number of conidia. […]

MCF7 = assay: Cell proliferation/viability with BIA, IC50 after 3 days; format: cell-based; conditions: Homo sapiens, MCF7, 72 h; MCF cells, treatment for 3 days
BI-1 (TMBIM6) = biological target: T1, BI-1 (TMBIM6) (Homo sapiens, UniProt P55061); assay: G-CEPIAer ER lumen calcium indicator; format: cell-based; conditions: HT1080, 10 μM BIA, compared to untreated control cells
T1 construct: endogenous in cells; host or cells: HT1080 cells transfected only with the G-CEPIAer indicator plasmid
Description: FIG. 74B is a result of treating HT1080 cells with BIA 10 μM and observing the fluorescence intensity of G-CEPIAer designed to measure calcium concentration inside
Since BI-1 regulates mTORC2 activation through ER Ca2+ release, the above results confirmed whether BIA inhibits Ca2+ release from BI-1.
On the other hand, when BIA is treated, calcium inside ER increases because […] in ER inhibits calcium. This was expressed G-CEPIAer, which measures the calcium concentration inside ER, and metamorphed HT1080 cells using CEPIAer plasmid to create stable cells. This transfected cell can be used to detect only free calcium from ER via BI-1 (TMBIM6) based on the calcium channel-like nature of BI-1 (TMBIM6). By confirming the increase in fluorescence, it was possible to confirm the specificity of the BIA (see FIG. 74B).

SKBR3 = assay: Cell proliferation/viability with BIA, IC50 after 3 days; format: cell-based; conditions: Homo sapiens, SK-BR-3, 72 h; SKBR3 cells, treatment for 3 days
[2] = system: HT1080, MCF7, MDA-MB-231 and SKBR3 cell lines; assay: Cell proliferation and viability of cell line panel with BIA; format: cell-based; conditions: 5 μM BIA

T1 sequence (P55061 whole entry): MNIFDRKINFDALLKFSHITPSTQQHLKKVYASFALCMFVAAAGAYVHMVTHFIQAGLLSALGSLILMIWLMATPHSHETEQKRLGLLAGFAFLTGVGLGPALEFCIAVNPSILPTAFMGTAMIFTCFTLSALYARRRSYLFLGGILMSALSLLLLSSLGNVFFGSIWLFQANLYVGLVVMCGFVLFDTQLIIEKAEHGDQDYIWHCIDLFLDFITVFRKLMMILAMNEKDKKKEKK

For `Nc1ccccc1C(=O)/C=C/c1cccc([N+](=O)[O-])c1` [BIA, 2E-1-2-Aminophenyl-3-3-nitrophenyl-2-propen-1-one], the cell invasion ([1]; HT1080 fibrosarcoma cells, 12 hours) was “very pronounced cell invasion inhibition”, the cell invasion ([1]; MDA-MB-231 and HT1080 cells, 2.0 μM BIA) was “reduced” and the “all BAL inflammatory cells” value (BAL inflammatory cells) was “inhibited”. The IC50 (MCF7) was 2600 ± 400 nM, the “G-CEPIAer fluorescence intensity (ER calcium)” value (BI-1 (TMBIM6)) was “increased” and the IC50 (SKBR3) was 2400 ± 400 nM. For the same compound, the “proliferation and cell viability of all cell lines” value [2] was “inhibited; also recorded: suppressed”.
